Data published in patent US20240400500A1, “SMALL-MOLECULE COMPOUND HAVING NAPHTHALENETHIOL ETHER STRUCTURE, AND USE THEREOF” (HANGZHOU PHECDAMED CO., LTD., priority 2021, published 2024).

Assays:
HEK293T-mtkeima cells [1] = test: Functional test of mitophagy inducer, direct treatment without CCCP; assay type: cell-based, human; settings: for Ability to induce mitophagy: HEK293T-mtkeima cells, number of cells in which mitophagy occurs/number of total cells
Protocol: Seeding human embryonic kidney transformed cells HEK293T-mtkeima cells in a 96-well black ELISA Plate at 1.5*10^5 cells/ml, 100 μl per well; after 25 hours, adding UMI-77 and compounds I-1˜I-26 respectively, and setting up 3 replicates; under 37° C., 5% CO2 incubation conditions, taking picture with biotekcytation5 every few hours for a total of 20 hours. Taking the bright field as the focusing channel, and taking 9pictures per well, and processing the pictures by using the instrument software and converting into the degree of mitophagy strength, exemplifying by UMI-77 and Compound I-4, the results are shown in FIG. 1.
Note: The HEK293T-mtkeima cells used in the experiments are HEK293T-mtkeima cells obtained according to the method mentioned in the literature [Cen, X. et al. Nat Commun 11, 5731 (2020).], by using lentiviral packaging technology, and stably expressing mtkeima protein in HEK293T cells. The CCCP used in the experiments is purchased from TargetMol (Item No. T7081).

HEK293T-mtkeima cells [2] = test: Selective induction of mitophagy after CCCP-induced mitochondrial damage; assay type: cell-based, human; settings: 5 uM or 10 uM CCCP pre-treatment compared with no CCCP treatment
[3] = In vitro liver microsome stability test (mice); assay type: in vitro ADME; settings: mice liver microsomes, NADPH, 37° C., 0-45 min
Protocol: (§1) Selecting Ketanserin as the reference compound. The specific method is as follows:
(§2) Preparing 0.1M K3PO4 (pH 7.4) buffer and 3×NADPH stock solution (6 mM, 5 mg/mL), and preheating in a 37° C. water bath; preparing of test compound and control compound spiking solution: adding 5 μL compound stock solution ([…]) into 95 μL acetonitrile; preparing of 1.5 μM spiking solution in microsomes (0.75 mg/mL): adding 1.5 μL spiking solution and 18.75 μL liver microsomes solution (20 mg/mL) into 479.75 μL K3PO4 buffer; taking 30 μL spiking solution in microsomes to the multi-well plate and incubating at 37° C. for 5 minutes; adding 15 μL NADPH stock solution into each well to start the reaction, and timing; respectively at 0 min, 5 min, 15 min, 30 min and 45 min, adding 150 μL of IS-containing acetonitrile solution to terminate the reaction; shaking for 10 mins and then centrifuging at 6000 rpm for 15 mins; taking 80 μL of the supernatant from each well for LC/MS detection and calculating T1/2.
(§3) Note: The mice and human liver microsomes used in the experiments are purchased from Xenotech.

[4] = In vitro liver microsome stability test (human); assay type: in vitro ADME; settings: human liver microsomes, NADPH, 37° C., 0-45 min
Protocol: as §1, §2, §3

| Structure (SMILES) | Ability to induce mitophagy (HEK293T-mtkeima cells [1]) | further results |
| --- | --- | --- |
| CN=S(=O)(Nc1cc(SCC(=O)O)c(O)c2ccccc12)c1ccc(Oc2ccccc2)cc1 (centres unmarked) [Compound I-17] | +++ (strong ability to induce mitophagy (number of cells in which mitophagy occurs/number of total cells >0.30)) |  |
| O=C(O)CSc1cc(N2CCN=S2(=O)c2ccc(Br)cc2)c2ccccc2c1O (centres unmarked) [Compound I-10] | ++ (moderate ability to induce mitophagy (number of cells in which mitophagy occurs/number of total cells is in the range of 0.2~0.3)) |  |
| O=C(O)CSc1cc(N2CCCN=S2(=O)c2ccc(Br)cc2)c2ccccc2c1O (centres unmarked) [Compound I-11] | ++ (moderate ability to induce mitophagy (number of cells in which mitophagy occurs/number of total cells is in the range of 0.2~0.3)) |  |
| CN=S(=O)(Nc1cc(SCc2nnc[nH]2)c(O)c2ccccc12)c1ccc(Br)cc1 (centres unmarked) [Compound I-13] | ++ (moderate ability to induce mitophagy (number of cells in which mitophagy occurs/number of total cells is in the range of 0.2~0.3)) |  |
| O=C(O)CSc1cc(NS(=O)(=Nc2ccccc2)c2ccc(Br)cc2)c2ccccc2c1O (centres unmarked) [Compound I-8] | ++ (moderate ability to induce mitophagy (number of cells in which mitophagy occurs/number of total cells is in the range of 0.2~0.3)) |  |
| O=C(O)CSc1cc(NS(=O)(=NC2CC2)c2ccc(Br)cc2)c2ccccc2c1O (centres unmarked) [Compound I-5] | +++ (strong ability to induce mitophagy (number of cells in which mitophagy occurs/number of total cells >0.30)) |  |
| CN=S(=O)(Nc1cc(SCC(=O)O)c(O)c2ccccc12)c1cccs1 (centres unmarked) [Compound I-21] | +++ (strong ability to induce mitophagy (number of cells in which mitophagy occurs/number of total cells >0.30)) |  |
| CN=S(=O)(Nc1cc(SCC(=O)O)c(O)c2ccccc12)c1ccc(-c2ccccc2)cc1 (centres unmarked) [Compound I-18] | ++ (moderate ability to induce mitophagy (number of cells in which mitophagy occurs/number of total cells is in the range of 0.2~0.3)) |  |
| O=C(O)CSc1cc(NS(=O)(=O)c2ccc(Br)cc2)c2ccccc2c1O [UMI-77, reference compound] | + (weak ability to induce mitophagy (number of cells in which mitophagy occurs/number of total cells is in the range of 0.1~0.2)) | Selective induction of autophagy in damaged mitochondria (FIG. 2) (HEK293T-mtkeima cells [2]): unable to selectively induce autophagy in damaged mitochondria; Liver microsome stability [3]: unstable; Liver microsome stability [4]: unstable |
| CN=S(=O)(Nc1cc(SCc2nn[nH]n2)c(O)c2ccccc12)c1ccc(Br)cc1 (centres unmarked) [Compound I-12] | +++ (strong ability to induce mitophagy (number of cells in which mitophagy occurs/number of total cells >0.30)) |  |
| CN=S(=O)(Nc1cc(SCC(=O)O)c(OC(C)=O)c2ccccc12)c1ccc(Br)cc1 (centres unmarked) [Compound I-14] | ++ (moderate ability to induce mitophagy (number of cells in which mitophagy occurs/number of total cells is in the range of 0.2~0.3)) |  |
| CN=S(=O)(Nc1cc(SCC(=O)O)c(O)c2ccccc12)c1cccc(-c2ccccc2)c1 (centres unmarked) [Compound I-22] | ++ (moderate ability to induce mitophagy (number of cells in which mitophagy occurs/number of total cells is in the range of 0.2~0.3)) |  |
| O=C(O)CSc1cc(NS(=O)(=NC2COC2)c2ccc(Br)cc2)c2ccccc2c1O (centres unmarked) [Compound I-6] | +++ (strong ability to induce mitophagy (number of cells in which mitophagy occurs/number of total cells >0.30)) |  |
| CN=S(=O)(Nc1cc(SCC(=O)O)c(O)c2ccccc12)c1ccc(C(F)(F)F)cc1 (centres unmarked) [Compound I-19] | +++ (strong ability to induce mitophagy (number of cells in which mitophagy occurs/number of total cells >0.30)) |  |
| O=C(O)CSc1cc(N(CCO)S(=O)(=O)c2ccc(Br)cc2)c2ccccc2c1O [Compound I-2] | ++ (moderate ability to induce mitophagy (number of cells in which mitophagy occurs/number of total cells is in the range of 0.2~0.3)) |  |
| CN=S(=O)(Nc1cc(SCC(=O)O)c(O)c2ccccc12)c1ccc(Br)cc1 (centres unmarked) [Compound I-4] | +++ (strong ability to induce mitophagy (number of cells in which mitophagy occurs/number of total cells >0.30)) | Liver microsome stability [3]: relatively superior stability; Strength of mitophagy induction compared with UMI-77 (FIG. 1) (HEK293T-mtkeima cells [1]; cells not treated with CCCP): induces mitophagy more strongly than UMI-77; Liver microsome stability [4]: relatively superior stability |
| CN(c1cc(SCC(=O)O)c(O)c2ccccc12)S(=O)(=O)c1ccc(Br)cc1 [Compound I-1] | +++ (strong ability to induce mitophagy (number of cells in which mitophagy occurs/number of total cells >0.30)) | Selective induction of autophagy in damaged mitochondria (FIG. 2) (HEK293T-mtkeima cells [2]): more likely to induce autophagy in damaged mitochondria; Liver microsome stability [3]: relatively superior stability; Liver microsome stability [4]: relatively superior stability |
| O=C(O)CSc1cc(N(c2ccccc2)S(=O)(=O)c2ccc(Br)cc2)c2ccccc2c1O [Compound I-3] | ++ (moderate ability to induce mitophagy (number of cells in which mitophagy occurs/number of total cells is in the range of 0.2~0.3)) |  |
| CN=S(=O)(c1ccc(Br)cc1)N(C)c1cc(SCC(=O)O)c(O)c2ccccc12 (centres unmarked) [Compound I-9] | ++ (moderate ability to induce mitophagy (number of cells in which mitophagy occurs/number of total cells is in the range of 0.2~0.3)) |  |
| CN=S(=O)(Nc1cc(SCC(=O)O)c(O)c2ccccc12)c1ccc2ccccc2c1 (centres unmarked) [Compound I-20] | ++ (moderate ability to induce mitophagy (number of cells in which mitophagy occurs/number of total cells is in the range of 0.2~0.3)) |  |
